Values of other authors in patent publication US20140080845A1, “USE OF ALLOPURINOL FOR THE TREATMENT OF HAND FOOT SKIN REACTION” (NOBERA PHARMA, S.L., priority 2009, published 2014).
Like-named read-outs stand apart in the source and are kept apart here.

Columns and labels:
[1] = meta-analysis, treated patients

Oc1ncnc2[nH]ncc12 [Allopurinol, 1H-pyrazolo[3,4-d] pyrimidin-4-ol]
solubility (in chloroform and in ether): practically insoluble | solubility (in dilute solutions of alkali hydroxides): dissolves | solubility (in water and alcohol): very slightly soluble

CNC(=O)c1cc(Oc2ccc(NC(=O)Nc3ccc(Cl)c(C(F)(F)F)c3)cc2)ccn1 [sorafenib]
summary incidence of HFSR, grade 3 [1]: 8.9% | summary incidence of HFSR, grades 1-3 [1]: 33.8%

CCN(CC)CCNC(=O)c1c(C)[nH]c(/C=C2\C(=O)Nc3ccc(F)cc32)c1C [sunitinib]
summary incidence of HFSR, grade 3 [1]: 5.5% | summary incidence of HFSR, grades 1-3 [1]: 18.9%
